Experimental data taken from doi:10.1101/2021.04.08.439011v1 (biorxiv, 2021).
Where two headings read alike, the source gives them in different places.

What was measured:
[1] = biological target: RIOK3 (Homo sapiens, UniProt O14730); details: 1 µM; binder
[2] = biological target: PRKCI (Homo sapiens, UniProt P41743); details: 1 µM; binder
[3] = biological target: RPS6KA6 (Homo sapiens, UniProt Q9UK32); details: binder
[4] = biological target: STK35 (Homo sapiens, UniProt Q8TDR2); details: 1 µM; binder
[5] = biological target: EGFR(L861Q) (Homo sapiens, UniProt P00533, L861Q); details: 1 µM; binder
[6] = biological target: BRAF(V600E) (Homo sapiens, UniProt P15056, V600E); details: 1 µM; binder
[7] = biological target: EPHB4 (Homo sapiens, UniProt P54760); details: 1 µM; binder
Sequence of EPHB4 (P54760 whole entry): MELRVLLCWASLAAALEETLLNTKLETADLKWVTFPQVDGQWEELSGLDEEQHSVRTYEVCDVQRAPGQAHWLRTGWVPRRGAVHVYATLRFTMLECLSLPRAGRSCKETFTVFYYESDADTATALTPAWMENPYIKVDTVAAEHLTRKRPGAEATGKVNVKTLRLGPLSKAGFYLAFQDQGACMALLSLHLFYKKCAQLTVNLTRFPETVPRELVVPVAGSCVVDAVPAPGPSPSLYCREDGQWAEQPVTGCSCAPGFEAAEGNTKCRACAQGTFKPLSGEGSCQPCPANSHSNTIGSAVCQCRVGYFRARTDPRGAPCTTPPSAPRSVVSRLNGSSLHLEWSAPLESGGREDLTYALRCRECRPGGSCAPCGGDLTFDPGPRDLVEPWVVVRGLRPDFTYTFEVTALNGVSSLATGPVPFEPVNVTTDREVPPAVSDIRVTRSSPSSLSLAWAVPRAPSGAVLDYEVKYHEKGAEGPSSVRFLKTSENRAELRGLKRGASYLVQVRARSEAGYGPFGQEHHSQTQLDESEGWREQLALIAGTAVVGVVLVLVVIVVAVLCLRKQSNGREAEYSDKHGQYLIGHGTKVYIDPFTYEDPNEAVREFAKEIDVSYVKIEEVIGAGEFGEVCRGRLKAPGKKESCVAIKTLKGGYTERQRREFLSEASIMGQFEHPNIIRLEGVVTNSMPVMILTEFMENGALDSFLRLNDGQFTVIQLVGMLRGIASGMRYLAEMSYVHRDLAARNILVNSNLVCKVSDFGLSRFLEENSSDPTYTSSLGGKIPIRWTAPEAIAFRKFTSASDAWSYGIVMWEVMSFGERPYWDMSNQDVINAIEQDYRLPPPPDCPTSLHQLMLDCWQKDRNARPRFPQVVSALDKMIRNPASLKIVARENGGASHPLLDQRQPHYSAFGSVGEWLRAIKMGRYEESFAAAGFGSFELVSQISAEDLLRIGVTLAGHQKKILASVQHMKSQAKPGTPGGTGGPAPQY

[8] = biological target: EPHA7 (Homo sapiens, UniProt Q15375); details: 1 µM; binder
Sequence of EPHA7 (Q15375 whole entry): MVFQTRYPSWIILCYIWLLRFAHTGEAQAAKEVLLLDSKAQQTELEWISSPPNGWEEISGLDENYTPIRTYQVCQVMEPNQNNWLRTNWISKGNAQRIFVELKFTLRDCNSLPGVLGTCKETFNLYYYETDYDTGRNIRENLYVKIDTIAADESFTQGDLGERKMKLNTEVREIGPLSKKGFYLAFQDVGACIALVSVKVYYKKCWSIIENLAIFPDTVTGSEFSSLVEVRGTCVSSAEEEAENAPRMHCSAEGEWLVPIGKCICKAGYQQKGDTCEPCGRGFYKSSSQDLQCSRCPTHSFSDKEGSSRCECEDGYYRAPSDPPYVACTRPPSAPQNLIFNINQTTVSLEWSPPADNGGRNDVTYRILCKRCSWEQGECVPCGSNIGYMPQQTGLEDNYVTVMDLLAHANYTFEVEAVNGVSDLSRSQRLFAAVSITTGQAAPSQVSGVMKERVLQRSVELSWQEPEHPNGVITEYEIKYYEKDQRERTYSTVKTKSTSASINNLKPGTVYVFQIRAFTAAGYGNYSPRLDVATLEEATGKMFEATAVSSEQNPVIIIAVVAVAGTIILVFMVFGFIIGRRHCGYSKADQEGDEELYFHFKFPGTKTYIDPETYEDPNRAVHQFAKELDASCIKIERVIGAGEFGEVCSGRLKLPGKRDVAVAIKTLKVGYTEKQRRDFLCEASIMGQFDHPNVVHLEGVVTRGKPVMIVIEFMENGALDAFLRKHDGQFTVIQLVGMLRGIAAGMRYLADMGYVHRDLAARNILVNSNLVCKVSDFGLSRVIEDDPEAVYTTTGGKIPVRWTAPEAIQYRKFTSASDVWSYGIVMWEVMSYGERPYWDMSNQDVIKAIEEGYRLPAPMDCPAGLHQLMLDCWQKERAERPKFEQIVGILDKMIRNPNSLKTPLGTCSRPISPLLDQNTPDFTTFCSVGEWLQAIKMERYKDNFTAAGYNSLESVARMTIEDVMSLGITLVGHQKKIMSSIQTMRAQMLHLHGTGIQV

[9] = biological target: CSF1R-autoinhibited (Homo sapiens, UniProt P07333); details: 1 µM; binder
[10] = biological target: KIT(V559D,V654A) (Homo sapiens, UniProt P10721, V559D/V654A); details: 1 µM; binder
[11] = biological target: CDC2L1 (Homo sapiens, UniProt P21127); details: 1 µM; binder
[12] = biological target: IKK-beta (Homo sapiens, UniProt O14920); details: 1 µM; binder
[13] = biological target: NEK5 (Homo sapiens, UniProt Q6P3R8); details: 1 µM; binder
[14] = biological target: MEK3 (Homo sapiens, UniProt P46734); details: 1 µM; binder
[15] = biological target: MYO3B (Homo sapiens, UniProt Q8WXR4); details: 1 µM; binder
[16] = biological target: KIT(A829P) (Homo sapiens, UniProt P10721, A829P); details: 1 µM; binder
[17] = biological target: HUNK (Homo sapiens, UniProt P57058); details: 1 µM; binder
[18] = biological target: PCTK2 (Homo sapiens, UniProt Q00537); details: 1 µM; binder
[19] = biological target: EPHA4 (Homo sapiens, UniProt P54764); details: 1 µM; binder
[20] = biological target: PNCK (Homo sapiens, UniProt Q6P2M8); details: 1 µM; binder
[21] = biological target: CSNK1G1 (Homo sapiens, UniProt Q9HCP0); details: 1 µM; binder
[22] = biological target: MYLK4 (Homo sapiens, UniProt Q86YV6); details: 1 µM; binder
[23] = biological target: SRMS (Homo sapiens, UniProt Q9H3Y6); details: 1 µM; binder
[24] = biological target: MKNK1 (Homo sapiens, UniProt Q9BUB5); details: 1 µM; binder
Sequence of MKNK1 (Q9BUB5 whole entry): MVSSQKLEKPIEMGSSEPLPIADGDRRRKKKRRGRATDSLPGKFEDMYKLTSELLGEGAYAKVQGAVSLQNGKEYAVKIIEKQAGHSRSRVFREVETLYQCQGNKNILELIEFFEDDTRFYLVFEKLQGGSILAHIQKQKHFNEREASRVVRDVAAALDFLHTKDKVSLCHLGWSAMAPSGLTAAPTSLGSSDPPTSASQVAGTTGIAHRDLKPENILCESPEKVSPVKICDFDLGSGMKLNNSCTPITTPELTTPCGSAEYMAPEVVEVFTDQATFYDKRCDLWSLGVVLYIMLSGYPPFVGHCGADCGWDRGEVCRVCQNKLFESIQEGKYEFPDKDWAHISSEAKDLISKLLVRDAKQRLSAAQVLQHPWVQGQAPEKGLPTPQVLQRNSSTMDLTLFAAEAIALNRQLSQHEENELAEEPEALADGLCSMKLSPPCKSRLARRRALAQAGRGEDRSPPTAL

[25] = biological target: CSK (Homo sapiens, UniProt P41240); details: 1 µM; binder
[26] = biological target: CDKL3 (Homo sapiens, UniProt Q8IVW4); details: 1 µM; binder
[27] = biological target: ZAK (Homo sapiens, UniProt Q9NYL2); details: 1 µM; binder
[28] = biological target: EGFR(G719C) (Homo sapiens, UniProt P00533, G719C); details: 1 µM; binder
[29] = biological target: MKNK2 (Homo sapiens, UniProt Q9HBH9); details: 1 µM; binder
Sequence of MKNK2 (Q9HBH9 whole entry): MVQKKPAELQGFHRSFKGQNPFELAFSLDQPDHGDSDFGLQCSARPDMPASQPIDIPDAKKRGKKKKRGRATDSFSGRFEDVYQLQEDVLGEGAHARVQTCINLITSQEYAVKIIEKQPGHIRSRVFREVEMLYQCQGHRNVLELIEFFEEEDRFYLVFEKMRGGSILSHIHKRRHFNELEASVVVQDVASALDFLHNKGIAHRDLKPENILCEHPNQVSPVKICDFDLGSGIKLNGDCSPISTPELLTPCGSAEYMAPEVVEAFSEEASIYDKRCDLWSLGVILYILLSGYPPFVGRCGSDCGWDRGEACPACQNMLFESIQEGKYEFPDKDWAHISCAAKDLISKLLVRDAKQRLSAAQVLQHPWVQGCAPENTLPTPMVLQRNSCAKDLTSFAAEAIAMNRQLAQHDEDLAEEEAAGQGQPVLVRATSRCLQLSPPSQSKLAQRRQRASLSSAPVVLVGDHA

[30] = biological target: BIKE (Homo sapiens, UniProt Q9NSY1); details: 1 µM; binder
Sequence of BIKE (Q9NSY1 whole entry): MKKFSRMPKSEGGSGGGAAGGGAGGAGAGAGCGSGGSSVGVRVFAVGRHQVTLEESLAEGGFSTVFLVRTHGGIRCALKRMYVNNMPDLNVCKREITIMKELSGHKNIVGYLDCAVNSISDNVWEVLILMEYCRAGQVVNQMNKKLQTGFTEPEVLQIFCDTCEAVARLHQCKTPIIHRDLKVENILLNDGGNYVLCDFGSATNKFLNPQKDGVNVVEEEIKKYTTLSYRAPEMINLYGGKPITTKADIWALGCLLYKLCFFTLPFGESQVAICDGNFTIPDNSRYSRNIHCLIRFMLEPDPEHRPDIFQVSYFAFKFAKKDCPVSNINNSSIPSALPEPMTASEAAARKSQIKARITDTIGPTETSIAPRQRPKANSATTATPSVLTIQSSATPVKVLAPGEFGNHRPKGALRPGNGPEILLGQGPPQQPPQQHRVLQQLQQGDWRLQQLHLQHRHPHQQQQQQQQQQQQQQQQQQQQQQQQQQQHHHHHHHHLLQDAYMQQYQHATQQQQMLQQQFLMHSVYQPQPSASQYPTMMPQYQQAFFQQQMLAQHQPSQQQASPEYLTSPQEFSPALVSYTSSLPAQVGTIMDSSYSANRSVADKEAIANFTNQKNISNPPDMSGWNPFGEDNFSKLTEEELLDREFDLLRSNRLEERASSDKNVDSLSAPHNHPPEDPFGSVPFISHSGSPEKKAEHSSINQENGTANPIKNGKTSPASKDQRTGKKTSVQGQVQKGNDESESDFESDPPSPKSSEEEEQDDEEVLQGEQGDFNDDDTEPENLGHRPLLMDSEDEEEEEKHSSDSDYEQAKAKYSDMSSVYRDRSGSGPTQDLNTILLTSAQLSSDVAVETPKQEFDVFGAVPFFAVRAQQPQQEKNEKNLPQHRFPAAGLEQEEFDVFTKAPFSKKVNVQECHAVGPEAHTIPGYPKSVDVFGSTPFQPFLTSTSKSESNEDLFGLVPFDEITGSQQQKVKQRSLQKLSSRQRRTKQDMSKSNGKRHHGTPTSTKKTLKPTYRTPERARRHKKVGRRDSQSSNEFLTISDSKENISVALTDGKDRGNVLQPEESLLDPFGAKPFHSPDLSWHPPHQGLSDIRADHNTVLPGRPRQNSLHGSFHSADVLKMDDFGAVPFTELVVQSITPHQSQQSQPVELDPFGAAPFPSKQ

Sequence of RPS6KA6 (Q9UK32 whole entry): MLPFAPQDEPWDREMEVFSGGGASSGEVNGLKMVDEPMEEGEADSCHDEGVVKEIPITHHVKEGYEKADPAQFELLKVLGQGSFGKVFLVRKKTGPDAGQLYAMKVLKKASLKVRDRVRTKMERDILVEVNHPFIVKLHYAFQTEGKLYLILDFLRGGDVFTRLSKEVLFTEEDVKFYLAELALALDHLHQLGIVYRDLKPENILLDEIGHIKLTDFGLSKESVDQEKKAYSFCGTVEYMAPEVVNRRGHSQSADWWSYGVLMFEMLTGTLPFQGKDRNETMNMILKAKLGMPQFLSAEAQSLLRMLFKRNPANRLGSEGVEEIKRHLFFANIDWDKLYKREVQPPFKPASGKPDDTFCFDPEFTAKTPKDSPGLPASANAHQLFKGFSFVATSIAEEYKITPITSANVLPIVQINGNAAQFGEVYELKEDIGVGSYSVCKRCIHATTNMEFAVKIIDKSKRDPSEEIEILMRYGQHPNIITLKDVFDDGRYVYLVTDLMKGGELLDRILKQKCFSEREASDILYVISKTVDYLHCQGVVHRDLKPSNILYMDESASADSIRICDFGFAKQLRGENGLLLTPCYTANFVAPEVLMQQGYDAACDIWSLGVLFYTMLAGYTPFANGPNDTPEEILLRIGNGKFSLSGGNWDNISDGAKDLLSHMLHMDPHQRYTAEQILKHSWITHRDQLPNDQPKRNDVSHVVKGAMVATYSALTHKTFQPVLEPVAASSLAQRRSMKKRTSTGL

In the case of `CNc1ncc2cc(-c3ccc(-c4cccc(C)n4)cc3Cl)c(=O)n(C[C@H]3OC[C@H](N)CO3)c2n1` [compound 6, G-5555], the “Percent Control” value [1] is reported as 90%, the “Percent Control” value [2] is reported as 63% and the “Percent Control” value ([3]; Kin.Dom.1 N-terminal) is reported as 95%. The “Percent Control” value ([3]; Kin.Dom.2 C-terminal, 1 µM) was 92%, the “Percent Control” value [4] was 100% and the “Percent Control” value [5] was 100%. For the same molecule, the “Percent Control” value [6] was 93%, the “Percent Control” value [7] was 100% and the “Percent Control” value [8] was 100%. The “Percent Control” value [9] was 84%, the “Percent Control” value [10] was 100% and the “Percent Control” value [11] was 97%. For the same molecule, the “Percent Control” value [12] was 80%, the “Percent Control” value [13] was 100% and the “Percent Control” value [14] was 29%. For the same molecule, the “Percent Control” value [15] was 57%, the “Percent Control” value [16] was 63% and the “Percent Control” value [17] was 100%. The “Percent Control” value [18] was 100%, the “Percent Control” value [19] was 100% and the “Percent Control” value [20] was 30%. For the same molecule, the “Percent Control” value [21] was 100%, the “Percent Control” value [22] was 100% and the “Percent Control” value [23] was 100%. For the same molecule, the “Percent Control” value [24] was 100%, the “Percent Control” value [25] was 85% and the “Percent Control” value [26] was 100%. For the same molecule, the “Percent Control” value [27] was 100%, the “Percent Control” value [28] was 100% and the “Percent Control” value [29] was 97%. The “Percent Control” value [30] was 100%.
